According to ChEMBL document CHEMBL4219066, “Identification and Mitigation of Reactive Metabolites of 2-Aminoimidazole-Containing Microsomal Prostaglandin E Synthase-1 Inhibitors Terminated Due to Clinical Drug-Induced Liver Injury” (J Med Chem, 2018):
Values belong to the compound of their own block, whether it stands above or below them.

Key:
[1] = In vivo drug level in human plasma treated with LY3031207 by HPLC-MS analysis; type: ADME, organism-based
[2] = Drug level in rat hepatocytes treated with LY3031207 at 2 uM after 4 hrs by LC-MS/MS analysis; type: ADME, cell-based, Hepatocyte
[3] = Drug level in dog hepatocytes treated with LY3031207 at 2 uM after 4 hrs by LC-MS/MS analysis; type: ADME, cell-based, Canis lupus familiaris, Hepatocyte
[4] = Drug level in human hepatocytes treated with LY3031207 at 2 uM after 4 hrs by LC-MS/MS analysis; type: ADME, cell-based, Hepatocyte
[5] = In vivo drug level in human urine treated with LY3031207 by HPLC-MS analysis; type: ADME, organism-based
[6] = In vivo drug level in human urine treated with LY3023703 by HPLC-MS analysis; type: ADME, organism-based
[7] = In vivo drug level in human plasma treated with LY3023703 by HPLC-MS analysis; type: ADME, organism-based
[8] = Drug level in rat hepatocytes treated with LY3023703 at 2 uM after 4 hrs by LC-MS/MS analysis; type: ADME, cell-based, Hepatocyte
[9] = Drug level in Beagle dog plasma treated with LY3023703 at 300 to 600 mg/kg, po measured after 2 hrs post dose by LC/MS analysis; type: ADME, organism-based, Canis lupus familiaris; conditions: in vivo
[10] = Drug level in human hepatocytes treated with LY3023703 at 2 uM after 4 hrs by LC-MS/MS analysis; type: ADME, cell-based, Hepatocyte
[11] = Drug level in rat hepatocytes treated with 2 -Chloro-N-(4,5-dimethyl-1H-imidazol-2-yl)-5-(pivalamidomethyl)benzamide at 2 uM after 4 hrs by LC-MS/MS analysis; type: ADME, cell-based, Hepatocyte
[12] = Drug level in rat hepatocytes treated with 2-Chloro-N-(4-methyl-1H-imidazol-2-yl)-5-(pivalamidomethyl)benzamide at 2 uM after 4 hrs by LC-MS/MS analysis; type: ADME, cell-based, Hepatocyte
[13] = Drug level in human hepatocytes treated with 2-Chloro-N-(4-methyl-1H-imidazol-2-yl)-5-(pivalamidomethyl)benzamide at 2 uM after 4 hrs by LC-MS/MS analysis; type: ADME, cell-based, Hepatocyte
[14] = Drug level in human hepatocytes treated with 2 -Chloro-N-(4,5-dimethyl-1H-imidazol-2-yl)-5-(pivalamidomethyl)benzamide at 2 uM after 4 hrs by LC-MS/MS analysis; type: ADME, cell-based, Hepatocyte
[15] = Drug level in dog hepatocytes treated with LY3023703 at 2 uM after 4 hrs by LC-MS/MS analysis; type: ADME, cell-based, Canis lupus familiaris, Hepatocyte
[16] = Drug level in human hepatocytes treated with 2-(2-Chloro-5-(pivalamidomethyl)benzamido)-N-phenyl-1Himidazole-4-carboxamide at 2 uM after 4 hrs by LC-MS/MS analysis; type: ADME, cell-based, Hepatocyte
[17] = Drug level in rat hepatocytes treated with 2-(2-Chloro-5-(pivalamidomethyl)benzamido)-N-phenyl-1Himidazole-4-carboxamide at 2 uM after 4 hrs by LC-MS/MS analysis; type: ADME, cell-based, Hepatocyte
[18] = Drug level in dog hepatocytes treated with 2-(Difluoromethyl)-N-(4-methyl-5-(4-(trifluoromethyl)-phenyl)-1H-imidazol-2-yl)-5-(pivalamidomethyl)nicotinamide at 2 uM after 4 hrs by LC-MS/MS analysis; type: ADME, cell-based, Canis lupus familiaris, Hepatocyte

Compound: Cc1nc(N[C@@H]2O[C@H](C(=O)O)[C@@H](O)[C@H](O)[C@H]2O)[nH]c1-c1ccc(C(F)(F)F)cc1
Drug metabolism [9]: Metabolite_Detected

Compound: Cc1nc(N)[nH]c1-c1ccc(C(F)(F)F)cc1
Drug metabolism [8]: Metabolite_Detected | Drug metabolism [9]: Metabolite_Detected | Drug metabolism [10]: Metabolite_Detected

Compound: C=C(C)C(=O)NCc1cnc(C(F)F)c(C(=O)Nc2nc(C)c(-c3ccc(C(F)(F)F)cc3)[nH]2)c1
Drug metabolism [7]: Metabolite_Detected | Drug metabolism [8]: Metabolite_Detected

Compound: CC(C)(CO)C(=O)NCc1ccc(Cl)c(C(=O)Nc2ncc[nH]2)c1
Drug metabolism [1]: Metabolite_Detected | Drug metabolism [2]: Metabolite_Detected | Drug metabolism [3]: Metabolite_Detected | Drug metabolism [4]: Metabolite_Detected | Drug metabolism [5]: Metabolite_Detected

Compound: CC(C)(C)C(=O)NCc1ccc(Cl)c(C(=O)NC2=NC(O)C(O)N2)c1 (stereo not given)
Drug metabolism [2]: Metabolite_Detected | Drug metabolism [3]: Metabolite_Detected | Drug metabolism [4]: Metabolite_Detected | Drug metabolism [5]: Metabolite_Detected

Compound: Cc1nc(NC(=O)c2cc(CNC(=O)C(C)(C)CO)ccc2Cl)[nH]c1C
Drug metabolism [11]: Metabolite_Detected | Drug metabolism [14]: Metabolite_Detected

Compound: CC(C)(C)C(=O)NCc1ccc(Cl)c(C(=O)O)c1
Drug metabolism [16]: Metabolite_Detected | Drug metabolism [17]: Metabolite_Detected

Compound: CC(C)C(=O)NCc1cnc(C(F)F)c(C(=O)NC(=N)N)c1
Drug metabolism [6]: Metabolite_Detected | Drug metabolism [8]: Metabolite_Detected | Drug metabolism [15]: Metabolite_Detected | Drug metabolism [10]: Metabolite_Detected

Other lines, results leading:

Drug metabolism [1]: Metabolite_Detected | Drug metabolism [2]: Metabolite_Detected | Drug metabolism [3]: Metabolite_Detected | Drug metabolism [4]: Metabolite_Detected | Drug metabolism [5]: Metabolite_Detected
Compound: CC(C)(C)C(=O)NCc1ccc(Cl)c(C(=O)Nc2nc(O)c[nH]2)c1

Drug metabolism [6]: Metabolite_Detected | Drug metabolism [7]: Metabolite_Detected | Drug metabolism [8]: Metabolite_Detected | Drug metabolism [9]: Metabolite_Detected | Drug metabolism [10]: Metabolite_Detected
Compound: Cc1nc(NC(=O)c2cc(CNC(=O)C(C)CO)cnc2C(F)F)[nH]c1-c1ccc(C(F)(F)F)cc1 (stereo not given)

Drug metabolism [11]: Metabolite_Detected | Drug metabolism [1]: Metabolite_Detected | Drug metabolism [12]: Metabolite_Detected | Drug metabolism [13]: Metabolite_Detected | Drug metabolism [14]: Metabolite_Detected | Drug metabolism [5]: Metabolite_Detected
Compound: CC(C)(C)C(=O)NCc1ccc(Cl)c(C(=O)NC(=N)N)c1

Drug metabolism [9]: Metabolite_Detected
Compound: CC(=O)Nc1nc(C)c(-c2ccc(C(F)(F)F)cc2)[nH]1

Drug metabolism [6]: Metabolite_Detected | Drug metabolism [7]: Metabolite_Detected | Drug metabolism [8]: Metabolite_Detected | Drug metabolism [9]: Metabolite_Detected | Drug metabolism [15]: Metabolite_Detected | Drug metabolism [10]: Metabolite_Detected
Compound: Cc1nc(NC(=O)c2cc(CNC(=O)C(C)(C)O)cnc2C(F)F)[nH]c1-c1ccc(C(F)(F)F)cc1

Drug metabolism [16]: Metabolite_Detected | Drug metabolism [17]: Metabolite_Detected
Compound: CC(C)(CO)C(=O)NCc1ccc(Cl)c(C(=O)Nc2nc(C(=O)Nc3ccccc3)c[nH]2)c1

Drug metabolism [12]: Metabolite_Detected | Drug metabolism [13]: Metabolite_Detected
Compound: Cc1c[nH]c(NC(=O)c2cc(CNC(=O)C(C)(C)CO)ccc2Cl)n1

Drug metabolism [11]: Metabolite_Detected | Drug metabolism [14]: Metabolite_Detected
Compound: Cc1[nH]c(NC(=O)c2cc(CNC(=O)C(C)(C)C)ccc2Cl)nc1CO

Drug metabolism [18]: Metabolite_Detected
Compound: CC(C)(C)C(=O)NCc1cnc(C(F)F)c(C(=O)Nc2nc(CO)c(-c3ccc(C(F)(F)F)cc3)[nH]2)c1

Drug metabolism [6]: Metabolite_Detected
Compound: Cc1nc(NC(=O)c2cc(CN)cnc2C(F)F)[nH]c1-c1ccc(C(F)(F)F)cc1

Drug metabolism [5]: Metabolite_Detected
Compound: CC(C)(CO)C(=O)NCc1ccc(Cl)c(C(=O)NC(=N)N)c1
